Values after ≈ are worked out from the molar mass of the structure shown. Bridge positions count the residues as written; N and C are the ends. Square brackets hold non-standard residues; d marks the D form. Peptide text beside a SMILES is read from it. Hyp = O=C(O)[C@@H]1C[C@@H](O)CN1; Pen = CC(C)(S)[C@H](N)C(=O)O; dDab = NCC[C@@H](N)C(=O)O; Nle = CCCC[C@H](N)C(=O)O; Dab = NCC[C@H](N)C(=O)O
T1: A. baumannii LptAm2.0 (LptAm(Ab)2.0) (A. baumannii ATCC 17978, UniProt V5VEZ9 33-159)
T1 construct: LptA of A. baumannii ATCC 17978, L33 to G159: as LptAm(Ab)1.0 with a further 5-residue truncation at the C-terminus; source: E. coli BL21(DE3), purified (two-step NiNTA with TEV cleavage); not shown: GB1 (protein G B1 domain), N-terminal, cleaved; His tag, N-terminal, cleaved
T1 sequence: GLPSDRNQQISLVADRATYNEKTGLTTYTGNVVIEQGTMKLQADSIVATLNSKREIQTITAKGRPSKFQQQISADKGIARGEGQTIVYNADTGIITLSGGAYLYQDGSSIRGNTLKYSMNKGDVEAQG

B1: A. baumannii LptAm2.0 (LptAm(Ab)2.0) (domain or fragment)
chain: T1 sequence
B2: Thanatin (peptide)
peptide: GSKKPVPIIYCNRRTGKCQRM
notes: thanatin, the naturally occurring 21-mer; positions 1′-21′; also called native thanatin

Key:
E. coli ATCC 25922 = assay type: cell-based
Text: Table 1 LptA sequence identity to E. coli and MIC values (µg/mL). | column: E. coli ATCC 25922

K. pneumoniae ATCC 43816 = assay type: cell-based
Text: Table 1 LptA sequence identity to E. coli and MIC values (µg/mL). | column: K. pneumoniae ATCC 43816

P. aeruginosa ATCC 27853 = assay type: cell-based
Text: Table 1 LptA sequence identity to E. coli and MIC values (µg/mL). | column: P. aeruginosa ATCC 27853

A. baumannii DSM 30008 = assay type: cell-based
Text: Table 1 LptA sequence identity to E. coli and MIC values (µg/mL). | column: A. baumannii DSM 30008

LptAm(Ab)2.0 [1] = assay: Fluorescence polarization competition (indirect) binding assay, displacement of than-FL; design: species or system A. baumannii; conditions: competition FP, than-FL 10 µM, triplicate; for IC50: 1:1 LptAm(Ab)2.0 and than-FL, FP buffer pH 7, overnight 4 °C, read at 25 °C, read-out: IC50 ± 95CI; for Ki: from IC50 and KD of than-FL by Cheng–Prusoff equation, read-out: KI ± 95CI
Experimental: The dissociation constant (KD) of than-FL was first determined in a direct binding assay and measured as 3.7 ± 0.5 µM (Figure 5, left) (Table 3). Subsequently, competitive binding assays were performed to determine the inhibition constants (KIs) of the unlabeled thanatin derivatives 1, 2, 5, 6, and 7. For each thanatin derivative tested, a serial dilution was prepared in triplicate on a single 96-well plate, to which a 1:1 mixture of LptAm(Ab)2.0 and than-FL was added. […] Determination of the KIs was achieved from the empirically derived IC50 values and KD of than-FL using the Cheng–Prusoff equation [27].
Protein stocks were purified and concentrated in SEC buffer (50 mM NaPi pH 7, 150 mM NaCl), and if necessary diluted to the desired concentration using FP buffer (50 mM NaPi pH 7, 150 mM NaCl, 0.05% Tween20). Peptide stocks and fluorescently labeled peptide stocks were made in FP buffer. A 1:1 serial dilution of 24 wells was prepared first by adding 100 µL of the unlabeled protein (e.g., LptAm(Ab)2.0) or peptide (e.g., 1, 2, 5–7), starting at high concentrations, 100–500 µM, in well one. Then, 50 µL was taken from the first well and added to 50 µL of FP buffer in the subsequent well, homogenized and repeated for the remaining of the 24-well series. Then, 50 µL of 2x stock of the fluorescently labeled thanatin (than-FL) was added to the dilution series. For the direct binding assays, 10 µM than-FL was used as the 2x stock, and for the indirect binding assays, a 1:1 mixture of 20 µM Lpt protein variant and 20 µM than-FL was used as the 2x stock; the final working concentrations of the than-FL were 5 µM and 10 µM, respectively. Plates were left to incubate overnight at 4 °C before fluorescence polarization (FP) measurements. Anisotropy was measured using the Tecan Safire^2 plate reader using a 10 nm bandwidth and setting the excitation and emission wavelengths to 635 nm and 670 nm, respectively. The G-factor (G) was also determined empirically as 1.094 for the instrument and included in all the anisotropy calculations.
For the indirect binding assays, r was calculated in the same manner as the direct binding assays. To control for non-specific binding between than-FL and competitors, than-FL alone was added to a replicate dilution series of the unlabeled peptide on the same plate. The control was subtracted from r to yield r’. Data were fit to a sigmoidal interpolation model on GraphPad Prism 9, and an IC50 was generated for each unlabeled peptide or protein measured. The inhibition constants (Kis) were calculated using the Cheng–Prusoff equation, Ki=IC50×1+LT/KD^−1 , in which the total concentration of than-FL (LT) was used as well as the KD previously derived from the peptide’s cognate direct binding assay.

LptAm(Ab)2.0 [2] = assay: Fluorescence polarization direct binding assay; design: species or system A. baumannii; conditions: direct FP, than-FL 5 µM, LptAm(Ab)2.0 serial dilution, FP buffer 50 mM NaPi pH 7, 150 mM NaCl, 0.05% Tween20, overnight 4 °C, read at 25 °C, triplicate; read-out: KD ± 95CI
Text: As previously mentioned, a second A. baumannii LptA protein construct (LptAm(Ab)2.0), truncated at G159 of the C-terminus had improved monomeric behavior in solution and was used for binding affinity assays. The protein underwent routine checks for purity via a Coomassie-stained SDS-PAGE (Figure S1), and its binding to 7 in a titration series was observed using analytical SEC (Figure 2B), before proceeding with fluorescence polarization (FP). The fluorescent label, Alexa647, was conjugated to thanatin at the first position, as described in [24]. […]
Protein stocks were purified and concentrated in SEC buffer (50 mM NaPi pH 7, 150 mM NaCl), and if necessary diluted to the desired concentration using FP buffer (50 mM NaPi pH 7, 150 mM NaCl, 0.05% Tween20). […] Plates were left to incubate overnight at 4 °C before fluorescence polarization (FP) measurements. Anisotropy was measured using the Tecan Safire^2 plate reader using a 10 nm bandwidth and setting the excitation and emission wavelengths to 635 nm and 670 nm, respectively. The G-factor (G) was also determined empirically as 1.094 for the instrument and included in all the anisotropy calculations.
For direct binding assays, fluorescence anisotropy (r) was calculated using the parallel and perpendicular polarized intensities using the equation r=I∥−I⊥∗G/I∥+2I⊥∗G . […]

[3] = molecular target: than-FL (fluorescently labeled thanatin, Alexa647); assay: fluorescence polarisation; direct binding: LptAm(Ab)2.0 serially diluted, than-FL 5 µM; 50 mM NaPi pH 7, 150 mM NaCl, 0.05% Tween20; incubated overnight at 4 °C, executed at ambient temperature (25 °C); One site - Total fit
[4] = molecular target: T1, A. baumannii LptAm2.0 (LptAm(Ab)2.0); assay: fluorescence polarisation; competition: unlabeled peptide serially diluted, 1:1 mixture of LptAm(Ab)2.0 and than-FL added (than-FL 10 µM final); 50 mM NaPi pH 7, 150 mM NaCl, 0.05% Tween20; KI from IC50 by the Cheng-Prusoff equation; conditions: both partners purified

Molecule	MIC (E. coli ATCC 25922) [µg/mL]	MIC (K. pneumoniae ATCC 43816) [µg/mL]	MIC (P. aeruginosa ATCC 27853) [µg/mL]	MIC (A. baumannii DSM 30008) [µg/mL]	IC50 (LptAm(Ab)2.0 [1]) [µM]	Ki (LptAm(Ab)2.0 [1]) [µM]	Kd (LptAm(Ab)2.0 [2]) [µM]	Kd [3] [µM]	IC50 [4] [µM]	Ki [4] [µM]
CCCC[C@H](NC(=O)[C@H](CCCNC(=N)N)NC(=O)[C@H](CCN)NC(=O)[C@@H]1CSSC[C@H](NC(=O)[C@H](Cc2ccc(O)cc2)NC(=O)[C@@H](NC(=O)[C@@H](NC(=O)[C@@H]2CCCN2C(=O)[C@@H](NC(=O)[C@@H]2CCCN2C(=O)[C@H](CCCCN)NC(=O)[C@@H](N)CCCCN)C(C)C)[C@@H](C)CC)[C@@H](C)CC)C(=O)N[C@@H](CC(N)=O)C(=O)N[C@@H](CCCNC(=N)N)C(=O)N[C@@H](CCCNC(=N)N)C(=O)N[C@@H]([C@@H](C)O)C(=O)NCC(=O)N[C@@H](CCCCN)C(=O)N1)C(=O)O [Peptide 1] (H-KKPVPIIYCNRRTGKC[Dab]R[Nle]-OH; disulfide 9-16)	0.063 (≈ 0.0281 µM)	0.250 (≈ 0.111 µM)	>64	>32						
CC[C@H](C)[C@H](NC(=O)[C@@H](NC(=O)[C@@H]1CCCN1C(=O)[C@@H](NC(=O)[C@@H]1CCCN1C(=O)[C@H](CCCCN)NC(=O)[C@@H](N)CCCCN)C(C)C)[C@@H](C)CC)C(=O)N[C@@H](Cc1ccc(O)cc1)C(=O)N[C@@H]1C(=O)N[C@@H](CC(N)=O)C(=O)N[C@@H](CCCNC(=N)N)C(=O)N[C@@H](CCN)C(=O)N[C@@H]([C@@H](C)O)C(=O)N[C@H](CCN)C(=O)N[C@@H](CCCCN)C(=O)N[C@H](C(=O)N[C@@H](CCN)C(=O)N[C@@H](CCCNC(=N)N)C(=O)N[C@@H](Cc2ccc(O)cc2)C(=O)O)CSSC1(C)C [Peptide 2] (H-KKPVPIIY[Pen]NR[Dab]T[dDab]KC[Dab]RY-OH; disulfide 9-16; N-terminus and C-terminus assumed)	0.031 (≈ 0.0134 µM)	0.125 (≈ 0.0541 µM)	>32	>32	24.1 ± 6.3	6.5 ± 1.7				
CC[C@H](C)[C@H](NC(=O)[C@@H](NC(=O)[C@@H]1C[C@@H](O)CN1C(=O)[C@@H](N)C(C)C)[C@@H](C)CC)C(=O)N[C@@H](Cc1ccc(O)cc1)C(=O)N[C@@H]1C(=O)N[C@@H](CC(N)=O)C(=O)N[C@@H](CCCNC(=N)N)C(=O)N[C@@H](CCN)C(=O)N[C@@H]([C@@H](C)O)C(=O)N[C@H](CCN)C(=O)N[C@@H](CCCCN)C(=O)N[C@H](C(=O)N[C@@H](CCN)C(=O)N[C@@H](CCN)C(=O)N[C@@H](Cc2ccc(O)cc2)C(=O)O)CSSC1(C)C [Peptide 5] (H-V[Hyp]IIY[Pen]NR[Dab]T[dDab]KC[Dab][Dab]Y-OH; disulfide 6-13; N-terminus and C-terminus assumed)	0.063 (≈ 0.0329 µM)	0.250 (≈ 0.131 µM)	>32	>32	11.5 ± 0.7	3.1 ± 0.2				
CC[C@H](C)[C@H](NC(=O)[C@@H]1C[C@@H](O)CN1C(=O)[C@@H](N)C(C)C)C(=O)N[C@H](C(=O)N[C@@H](Cc1ccc(O)cc1)C(=O)N[C@@H]1C(=O)N[C@@H](CC(N)=O)C(=O)N[C@@H](CCCNC(=N)N)C(=O)N[C@@H](CCN)C(=O)N[C@@H]([C@@H](C)O)C(=O)N[C@H](CCN)C(=O)N[C@@H](CCCCN)C(=O)N[C@H](C(=O)N[C@@H](CCN)C(=O)N[C@@H](CCCNC(=N)N)C(=O)N[C@@H](Cc2ccc(O)cc2)C(=O)O)CSSC1(C)C)[C@@H](C)O [Peptide 6] (H-V[Hyp]ITY[Pen]NR[Dab]T[dDab]KC[Dab]RY-OH; disulfide 6-13; N-terminus and C-terminus assumed)	0.125 (≈ 0.0638 µM)	0.250 (≈ 0.128 µM)	>32	>32	15.4 ± 1.3	4.1 ± 0.4				
Than-FL: fluorescently labeled thanatin, Alexa647 conjugated at the first position; reporter in all FP assays							3.7 ± 0.5			
B1								3.7		
B2									11.8	3.2

Source: paper PMC10254193, “Early Molecular Insights into Thanatin Analogues Binding to A. baumannii LptA” (Molecules, 2023)
